Measured values from publication PMC3315833 (Tetrahedron, 2012).

Legend:
[1] = Structural stability in DMSO-d6; format: physicochemical
HT-29 colon cancer cells = experiment: Cytotoxicity against HT-29 cells; conditions: read-out: IC50, cytotoxicity against HT-29 cells
[2] = tested on: MCF-7 breast cancer cells; experiment: Cytotoxicity against MCF-7 cells; conditions: read-out: IC50, cytotoxicity against MCF-7 cells

Compound | structural stability in DMSO-d6 [1] | IC50 (HT-29 colon cancer cells) | IC50 [2]
C=C[C@]1(C)[C@H](Cl)Cc2cc(C)c3[nH]c4ccccc4c3c2[C@@H]1C#N (relative stereo) [Compound 3, 12-epi-fischerindole W nitrile] | structurally unstable | – | –
C=C[C@]1(C)CC[C@H]2C(=C1C#N)c1c([nH]c3ccccc13)C2(C)C (relative stereo) [Compound 2, deschloro 12-epi-fischerindole I nitrile] | – | 23 µM | > 40 µM
C=C[C@]1(C)CCc2cc(C)c3[nH]c4ccccc4c3c2[C@@H]1C#N (relative stereo) [Compound 4, deschloro 12-epi-fischerindole W nitrile] | structurally unstable | – | –
